Measurements taken from ChEMBL document CHEMBL3045532, “Synthesis and evaluation of novel prodrugs of naproxen” (Med Chem Res, 2011).

Legend:
Rattus norvegicus [1] = test: Anti-inflammatory activity in Rattus norvegicus Wistar (rat) assessed as inhibition of carrageenan-induced edema volume at 67.8 mg/kg, po measured after 30 min; type: functional; conditions: 0.5 h
Rattus norvegicus [2] = test: Anti-inflammatory activity in Rattus norvegicus Wistar (rat) assessed as inhibition of carrageenan-induced edema volume at 67.8 mg/kg, po measured after 60 min; type: functional; conditions: 1 h
Rattus norvegicus [3] = test: Anti-inflammatory activity in Rattus norvegicus Wistar (rat) assessed as inhibition of carrageenan-induced edema volume at 67.8 mg/kg, po measured after 90 min; type: functional; conditions: 1.5 h
Rattus norvegicus [4] = test: Anti-inflammatory activity in Rattus norvegicus Wistar (rat) assessed as inhibition of carrageenan-induced edema volume at 67.8 mg/kg, po measured after 120 min; type: functional; conditions: 2 h
Mus musculus [5] = test: Analgesic activity in Mus musculus (mouse) assessed as inhibition of acetic acid-induced writhing at 67.8 mg/kg, po pretreated 1 hr before acetic acid challenge; type: functional
[6] = Prodrug conversion in acetate buffer assessed as half-life for hydrolysis at pH 5; type: physicochemical
Rattus norvegicus [7] = test: Anti-inflammatory activity in Rattus norvegicus Wistar (rat) assessed as inhibition of carrageenan-induced edema volume at 66.4 mg/kg, po measured after 90 min; type: functional; conditions: 1.5 h
[8] = Prodrug conversion in phosphate buffer assessed as half-life for hydrolysis at pH 7.4; type: physicochemical
Rattus norvegicus [9] = test: Gastrointestinal toxicity in Rattus norvegicus Wistar (rat) assessed as ulcer at 66.4 mg/kg, po; type: organism-based; set-up: dose 66.4 mg/kg, route oral; conditions: in vivo
Rattus norvegicus [10] = test: Anti-inflammatory activity in Rattus norvegicus Wistar (rat) assessed as inhibition of carrageenan-induced edema volume at 66.4 mg/kg, po measured after 60 min; type: functional; conditions: 1 h
[11] = Prodrug conversion in acetate buffer assessed as half-life for hydrolysis at pH 3; type: physicochemical
Rattus norvegicus [12] = test: Anti-inflammatory activity in Rattus norvegicus Wistar (rat) assessed as inhibition of carrageenan-induced edema volume at 66.4 mg/kg, po measured after 30 min; type: functional; conditions: 0.5 h
Rattus norvegicus [13] = test: Anti-inflammatory activity in Rattus norvegicus Wistar (rat) assessed as inhibition of carrageenan-induced edema volume at 66.4 mg/kg, po measured after 120 min; type: functional; conditions: 2 h
[14] = Prodrug conversion in acetate buffer assessed as half-life for hydrolysis at pH 4; type: physicochemical
Mus musculus [15] = test: Analgesic activity in Mus musculus (mouse) assessed as inhibition of acetic acid-induced writhing at 66.4 mg/kg, po pretreated 1 hr before acetic acid challenge; type: functional
Rattus norvegicus [16] = test: Anti-inflammatory activity in Rattus norvegicus Wistar (rat) assessed as inhibition of carrageenan-induced edema volume at 69.6 mg/kg, po measured after 120 min; type: functional; conditions: 2 h
Rattus norvegicus [17] = test: Anti-inflammatory activity in Rattus norvegicus Wistar (rat) assessed as inhibition of carrageenan-induced edema volume at 69.6 mg/kg, po measured after 90 min; type: functional; conditions: 1.5 h
Mus musculus [18] = test: Analgesic activity in Mus musculus (mouse) assessed as inhibition of acetic acid-induced writhing at 69.6 mg/kg, po pretreated 1 hr before acetic acid challenge; type: functional
Rattus norvegicus [19] = test: Anti-inflammatory activity in Rattus norvegicus Wistar (rat) assessed as inhibition of carrageenan-induced edema volume at 69.6 mg/kg, po measured after 30 min; type: functional; conditions: 0.5 h
Rattus norvegicus [20] = test: Anti-inflammatory activity in Rattus norvegicus Wistar (rat) assessed as inhibition of carrageenan-induced edema volume at 69.6 mg/kg, po measured after 60 min; type: functional; conditions: 1 h
Mus musculus [21] = test: Analgesic activity in Mus musculus (mouse) assessed as inhibition of acetic acid-induced writhing at 69.4 mg/kg, po pretreated 1 hr before acetic acid challenge; type: functional
Rattus norvegicus [22] = test: Anti-inflammatory activity in Rattus norvegicus Wistar (rat) assessed as inhibition of carrageenan-induced edema volume at 69.4 mg/kg, po measured after 30 min; type: functional; conditions: 0.5 h
Rattus norvegicus [23] = test: Anti-inflammatory activity in Rattus norvegicus Wistar (rat) assessed as inhibition of carrageenan-induced edema volume at 69.4 mg/kg, po measured after 90 min; type: functional; conditions: 1.5 h
Rattus norvegicus [24] = test: Anti-inflammatory activity in Rattus norvegicus Wistar (rat) assessed as inhibition of carrageenan-induced edema volume at 69.4 mg/kg, po measured after 60 min; type: functional; conditions: 1 h
Rattus norvegicus [25] = test: Anti-inflammatory activity in Rattus norvegicus Wistar (rat) assessed as inhibition of carrageenan-induced edema volume at 69.4 mg/kg, po measured after 120 min; type: functional; conditions: 2 h
Rattus norvegicus [26] = test: Anti-inflammatory activity in Rattus norvegicus Wistar (rat) assessed as inhibition of carrageenan-induced edema volume at 67.4 mg/kg, po measured after 90 min; type: functional; conditions: 1.5 h
Rattus norvegicus [27] = test: Anti-inflammatory activity in Rattus norvegicus Wistar (rat) assessed as inhibition of carrageenan-induced edema volume at 67.4 mg/kg, po measured after 120 min; type: functional; conditions: 2 h
Rattus norvegicus [28] = test: Gastrointestinal toxicity in Rattus norvegicus Wistar (rat) assessed as ulcer at 69.4 mg/kg, po; type: organism-based; set-up: dose 69.4 mg/kg, route oral; conditions: in vivo
Rattus norvegicus [29] = test: Anti-inflammatory activity in Rattus norvegicus Wistar (rat) assessed as inhibition of carrageenan-induced edema volume at 67.4 mg/kg, po measured after 60 min; type: functional; conditions: 1 h
Mus musculus [30] = test: Analgesic activity in Mus musculus (mouse) assessed as inhibition of acetic acid-induced writhing at 67.4 mg/kg, po pretreated 1 hr before acetic acid challenge; type: functional
Rattus norvegicus [31] = test: Anti-inflammatory activity in Rattus norvegicus Wistar (rat) assessed as inhibition of carrageenan-induced edema volume at 67.4 mg/kg, po measured after 30 min; type: functional; conditions: 0.5 h
Mus musculus [32] = test: Analgesic activity in Mus musculus (mouse) assessed as inhibition of acetic acid-induced writhing at 64.7 mg/kg, po pretreated 1 hr before acetic acid challenge; type: functional
Rattus norvegicus [33] = test: Anti-inflammatory activity in Rattus norvegicus Wistar (rat) assessed as inhibition of carrageenan-induced edema volume at 64.7 mg/kg, po measured after 90 min; type: functional; conditions: 1.5 h
Rattus norvegicus [34] = test: Anti-inflammatory activity in Rattus norvegicus Wistar (rat) assessed as inhibition of carrageenan-induced edema volume at 64.7 mg/kg, po measured after 120 min; type: functional; conditions: 2 h
Rattus norvegicus [35] = test: Anti-inflammatory activity in Rattus norvegicus Wistar (rat) assessed as inhibition of carrageenan-induced edema volume at 64.7 mg/kg, po measured after 60 min; type: functional; conditions: 1 h
Rattus norvegicus [36] = test: Anti-inflammatory activity in Rattus norvegicus Wistar (rat) assessed as inhibition of carrageenan-induced edema volume at 64.7 mg/kg, po measured after 30 min; type: functional; conditions: 0.5 h

For `COc1ccc2cc(C(C)C(=O)OCC(OC(C)=O)C(OC(C)=O)C(OC(C)=O)C(/C=N/[C@@H](Cc3ccccc3)C(=O)O)OC(C)=O)ccc2c1` (stereo not given in full), the inhibition in vivo at 67.8 mg/kg (Rattus norvegicus [1]) was 22%, the inhibition in vivo at 67.8 mg/kg (Rattus norvegicus [2]) was 13% and the inhibition in vivo at 67.8 mg/kg (Rattus norvegicus [3]) was 47%. For the same compound, the inhibition in vivo at 67.8 mg/kg (Rattus norvegicus [4]) was 69% and the inhibition in vivo at 67.8 mg/kg (Mus musculus [5]) was 91.2%.

Work on `COc1ccc2cc(C(C)C(=O)OCC(OC(C)=O)C(OC(C)=O)C(OC(C)=O)C(/C=N/[C@@H](CS)C(=O)O)OC(C)=O)ccc2c1` (stereo not given in full) yielded a t1/2 [6] of 77 h, an inhibition in vivo at 66.4 mg/kg (Rattus norvegicus [7]) of 57% and a t1/2 [8] of 30 h. For the same compound, the Activity (Rattus norvegicus [9]) was “Non-toxic”, the inhibition in vivo at 66.4 mg/kg (Rattus norvegicus [10]) was 30% and the t1/2 [11] was 44 h. It also gave an inhibition in vivo at 66.4 mg/kg (Rattus norvegicus [12]) of 42%, an inhibition in vivo at 66.4 mg/kg (Rattus norvegicus [13]) of 67% and a t1/2 [14] of 15 h. The inhibition in vivo at 66.4 mg/kg (Mus musculus [15]) was 30.4%.

Work on `COc1ccc2cc(C(C)C(=O)OCC(OC(C)=O)C(OC(C)=O)C(OC(C)=O)C(/C=N/[C@@H](Cc3ccc(O)c(O)c3)C(=O)O)OC(C)=O)ccc2c1` (stereo not given in full) yielded an inhibition in vivo at 69.6 mg/kg (Rattus norvegicus [16]) of 73%, an inhibition in vivo at 69.6 mg/kg (Rattus norvegicus [17]) of 50% and an inhibition in vivo at 69.6 mg/kg (Mus musculus [18]) of 92.3%. For the same compound, the inhibition in vivo at 69.6 mg/kg (Rattus norvegicus [19]) was 44% and the inhibition in vivo at 69.6 mg/kg (Rattus norvegicus [20]) was 41%.

In the case of `COc1ccc2cc(C(C)C(=O)OCC(OC(C)=O)C(OC(C)=O)C(OC(C)=O)C(/C=N/[C@@H](Cc3ccc(O)cc3)C(=O)O)OC(C)=O)ccc2c1` (stereo not given in full), the t1/2 [6] is reported as 50 h, the inhibition in vivo at 69.4 mg/kg (Mus musculus [21]) is reported as 82% and the t1/2 [8] is reported as 18 h. For the same compound, the inhibition in vivo at 69.4 mg/kg (Rattus norvegicus [22]) was 60%, the t1/2 [11] was 22 h and the inhibition in vivo at 69.4 mg/kg (Rattus norvegicus [23]) was 47%. The inhibition in vivo at 69.4 mg/kg (Rattus norvegicus [24]) was 25%, the t1/2 [14] was 67 h and the inhibition in vivo at 69.4 mg/kg (Rattus norvegicus [25]) was 67%.

In the case of `COc1ccc2cc(C(C)C(=O)OCC(OC(C)=O)C(OC(C)=O)C(OC(C)=O)C(/C=N/[C@@H](CC(C)C)C(=O)O)OC(C)=O)ccc2c1` (stereo not given in full), the inhibition in vivo at 67.4 mg/kg (Rattus norvegicus [26]) is reported as 32%, the inhibition in vivo at 67.4 mg/kg (Rattus norvegicus [27]) is reported as 64% and the Activity (Rattus norvegicus [28]) is reported as “Non-toxic”. The inhibition in vivo at 67.4 mg/kg (Rattus norvegicus [29]) was 30%, the inhibition in vivo at 67.4 mg/kg (Mus musculus [30]) was 70.5% and the inhibition in vivo at 67.4 mg/kg (Rattus norvegicus [31]) was 46%.

Work on `COc1ccc2cc(C(C)C(=O)OCC(OC(C)=O)C(OC(C)=O)C(OC(C)=O)C(/C=N/[C@@H](CCCN)C(=O)O)OC(C)=O)ccc2c1` (stereo not given in full) yielded an inhibition in vivo at 64.7 mg/kg (Mus musculus [32]) of 82%, an inhibition in vivo at 64.7 mg/kg (Rattus norvegicus [33]) of 50% and an inhibition in vivo at 64.7 mg/kg (Rattus norvegicus [34]) of 67%. It also gave an inhibition in vivo at 64.7 mg/kg (Rattus norvegicus [35]) of 32% and an inhibition in vivo at 64.7 mg/kg (Rattus norvegicus [36]) of 24%.
